# What was measured:
# [1] = Liver S9 fraction stability, dog; assay type: in vitro ADME; conditions: dog liver S9 1.0 mg/ml, 2 μM, 37° C.
# Protocol: (§1) Liver S9 fraction stability determination of the test compounds in dog, cynomolgus monkey and human is performed using HPLC-MS. Test compound (2 μM, 0.1% DMSO, 1% Methanol final concentration) was assessed for stability in a 50 μl phosphate buffer containing 1.0 mg/ml S9 protein from each of the three species and 5 mM D-saccharic acid-1, 4-lactone. Samples were incubated at 37° C. for 60 minutes and the % compound remaining was assessed.
# [2] = Liver S9 fraction stability, human; assay type: in vitro ADME; conditions: human liver S9 1.0 mg/ml, 2 μM, 37° C.
# Protocol: as §1
# [3] = Liver S9 fraction stability, monkey; assay type: in vitro ADME, cynomolgus monkey; conditions: monkey liver S9 1.0 mg/ml, 2 μM, 37° C.
# Protocol: as §1
# [4] = Plasma stability, monkey plasma (HPLC-MS); assay type: in vitro ADME, Cynomolgus Monkey; conditions: 2 μM, 37° C.
# Protocol: (§2) Plasma Stability Determination of the Test Compounds in Rat, Dog, Cynomolgus Monkey and human plasma is performed using HPLC-MS. For rat, incubations are carried out in 96-well polypropylene plates in 5 aliquots of 70 μL each (one for each time point). […] Five time points are analyzed (0, 15, 120, 480 and 1440 min). […] All incubations are performed in duplicates. The samples are analyzed by HPLC-MS. The percentage of parent compound remaining after incubation in plasma is determined.
# [5] = in vivo; cited from earlier work
# [6] = Plasma stability, human plasma (HPLC-MS); assay type: in vitro ADME; conditions: 2 μM, 37° C., 120 min
# Protocol: as §2
structure (smiles),measurement,setting,value
"CCCCCCCCCCCCCCCC(=O)OC1CCCn2c1nc(C)c(CCN1CCC(c3noc4cc(F)ccc34)CC1)c2=O (stereo not drawn) [Paliperidone palmitate, reference compound]","% remaining at 60 minutes, Dog",[1],56.4%
same,"% remaining at 60 minutes, Human",[2],47.8%
same,"% remaining at 60 minutes, Monkey",[3],57.4%
same,"% remaining at time point in minutes, 15 min",[4],92%
Oc1ccc2c3c1O[C@H]1[C@H](O)CC[C@@]4(O)[C@@H](C2)N(CC2CC2)CC[C@]314 [6-β-naltrexol],mean elimination half-life,[5],thirteen
"CCCCCCCCCCCC(=O)OCN1C(=O)CCc2ccc(OCCCCN3CCN(c4cccc(Cl)c4Cl)CC3)cc21 [Aripiprazole lauroxil, reference compound]","% remaining at time point in minutes, 120 min",[6],80%
same,"% remaining at 60 minutes, Dog",[1],66.1%
same,"% remaining at 60 minutes, Human",[2],47.8%
same,"% remaining at 60 minutes, Monkey",[3],56.6%
